Test results as given in patent publication US5506217A, “Phosphonates as anti-cancer agents” (The University of British Columbia, priority 1994, dated 1996).
Where two headings read alike, the source gives them in different places.

Experiments:
L1210 tumor cells = experiment: colonogenic cell survival assay; type: cell-based; conditions: Mus musculus, 120 h, L1210, read-out: Colonies formed after 5 days (% of control)
Method: (§1) Inhibition of colony formation in soft agar medium (colonogenic cell survival assay) is a more rigorous and direct measurement of cell kill or growth inhibition, and reflects the anti-cancer activity of the test compound. Briefly, tumor cells were cultured in petri dishes in methylcellulose, with or without a phosphonate test compound, and the number of colonies formed during a 5-day incubation period were counted.
The effectiveness of S-thioalkylphosphonate on the growth of a lymphoma cell line was also investigated. L1210 is a mouse B-Cell tumor (lymphoma), was tested in soft agar for susceptibility to the cytotoxic action of thioalkylphosphonate.

P388 tumor cells = experiment: colonogenic cell survival assay; type: cell-based; conditions: Mus musculus, 120 h, P388, read-out: Colonies formed after 5 days (% of control)
Method: as §1
The efficacy of 4-hexadecylthio-3-methoxybutane phosphonocholine on the growth of a mouse […] tumor was evaluated. The P388 cell line was cultured in a soft agar in the presence and absence of various concentrations of thioalkylphosphonate for 5 days, the number of tumor colonies formed during this period of time was registered.

WEHI-3B tumor cells [1] = experiment: colonogenic cell survival assay; type: cell-based; conditions: Mus musculus, WEHI3B, 120 h, WEHI-3B, read-out: Colonies formed after 5 days (% of control)
Method: as §1
Table 17 tabulates data obtained with two differrent phosphonate analogs using a colonogenic assay. Colonogenic assay is one of the most trusted tests for determination of effectiveness of an anti-cancer agent. The test is based on the formation of tumor colonies in vitro in a methyl cellulose or soft agar medium. The following results were obtained with the formation of colonies in methyl cellulose medium after five days in the presence or absence of four phosphonate analogs, two with a thioalkyl chain and two with an alkyloxy chain.

WEHI-3B tumor = WEHI-3B tumor growth in BALB/C mice; type: in vivo; conditions: for Tumor volume in cm^3: 500 μg (approx. 25 mg/Kg) daily IM
Method: After 3 days one group (n=5) of mice received 500 μg (approximately 25 mg/Kg body weight) of the phosphonate compound of the following formula daily by intramuscular (IM) injection. The size of the resulting tumor was measured using a caliper: [drawing 17]

WEHI-3B tumor cells [2] = experiment: 3H-thymidine incorporation assay; type: cell-based; conditions: Mus musculus, WEHI3B, read-out: Thymidine uptake (% of control)
Method: (§2) Experiments were performed using a number of different rumor cell lines. Tumor cells were cultured in RPMI-1640 medium supplemented with 10% fetal bovine serum, penicillin (50 units/mL), streptomycin (50 μg/mL) and mercaptoethanol (5 μg/mL) in an atmosphere of 5% CO2. The cells were passaged weekly by serial 1/10 to 1/10,000 dilutions. The cell viability and growth were constantly monitored by staining with trypan blue exclusion dye or the incorporation of tritiated thymidine.
(§3) Inhibition of ^3 H-thymidine incorporation into the DNA of cells by a test compound is an indirect measurement of cell kill or growth inhibition, and reflects the anti-cancer activity of the compound.
Tumor cells (2×104 ^4 cells/well) were placed in 200 μL of medium in 96-well plastic microtiter plates; a further 5 μL of medium either with or without phosphonate was added. […] The cells were then harvested using a Brandel cell harvester (model M-12) and collected on Whatman glass microfilters. The radioactivity associated with the filters was quantified in a liquid scintillation counter, and the amount of ^3 H-thymidine incorporated into tumor cells treated with the phosphonate compound was calculated as a percentage of the amount of ^3 H-thymidine incorporated into untreated tumor cells.
The biological activities of 4-hexadecylthio-3(S ) -3-methoxybutane-l-phosponocholine and its enantiomer 4-hexadecylthio-3(R)-3-methoxybutane-1-phosphonocholine were studied on several cancer cell lines. […] The cell viability, was determined as percent[^3 H]thymidine uptake into the cell DNA. The following results are mean of five samples ± S.D.

HL-60 tumor cells = experiment: 3H-thymidine incorporation assay; type: cell-based; conditions: Homo sapiens, HL-60 cells, read-out: Thymidine uptake (% of control)
Method: as §2, §3
Tumor cells (2×104 ^4 cells/well) were placed in 200 μL of medium in 96-well plastic microtiter plates; a further 5 μL of medium either with or without phosphonate was added. After incubation for 24, 48 or 72 hours at 37° C. in a humidified atmosphere containing 5% CO2, the wells were pulsed with 0.1 μCi of ^3 H-thymidine for an additional 24 hours. The cells were then harvested using a Brandel cell harvester (model M-12) and collected on Whatman glass microfilters. The radioactivity associated with the filters was quantified in a liquid scintillation counter, and the amount of ^3 H-thymidine incorporated into tumor cells treated with the phosphonate compound was calculated as a percentage of the amount of ^3 H-thymidine incorporated into untreated tumor cells.

[3] = Table 3: 48 hours in title (text: 72 hours), WEHI-3B cells
[4] = Table 3: 48 hours in title (text: 72 hours)

`CCCCCCCCCCCCCCCCOCC(CP(=O)([O-])OCC[N+](C)(C)C)OC` (centres unmarked) [compound VII] was tested, and the activity at 1.25 µM (L1210 tumor cells; 1.25 μM) was 91 ± 7%, the activity at 2.5 µM (L1210 tumor cells; 2.5 μM) was 80 ± 11% and the activity at 5 µM (L1210 tumor cells; 5 μM) was 55 ± 4%. The activity at 10 µM (L1210 tumor cells; 10 μM) was 42 ± 5%, the activity at 20 µM (L1210 tumor cells; 20 μM) was 22 ± 3% and the activity at 40 µM (L1210 tumor cells; 40 μM) was 14 ± 5%. It also gave an activity at 1.25 µM (P388 tumor cells; 1.25 μM) of 88 ± 6%, an activity at 2.5 µM (P388 tumor cells; 2.5 μM) of 79 ± 8% and an activity at 5 µM (P388 tumor cells; 5 μM) of 61 ± 7%. For the same molecule, the activity at 10 µM (P388 tumor cells; 10 μM) was 56 ± 7%, the activity at 20 µM (P388 tumor cells; 20 μM) was 29 ± 4% and the activity at 40 µM (P388 tumor cells; 40 μM) was 16 ± 2%. The activity at 1.25 µM (WEHI-3B tumor cells [1]; 1.25 μM) was 88%, the activity at 2.5 µM (WEHI-3B tumor cells [1]; 2.5 μM) was 60% and the activity at 5 µM (WEHI-3B tumor cells [1]; 5 μM) was 48%. For the same molecule, the activity at 10 µM (WEHI-3B tumor cells [1]; 10 μM) was 34%, the activity at 20 µM (WEHI-3B tumor cells [1]; 20 μM) was 13% and the activity at 40 µM (WEHI-3B tumor cells [1]; 40 μM) was 2%. The “effect on tumor growth (in words)” value (WEHI-3B tumor; 25 mg/Kg body weight per day, intramuscularly) was “delayed the onset of tumor growth and reduced the tumor growth significantly”, the “Tumor volume in cm^3” value (WEHI-3B tumor; day 3 after implantation) was 0.000 ± 0.000 cm^3 and the “Tumor volume in cm^3” value (WEHI-3B tumor; day 15 after implantation) was 0.000 ± 0.000 cm^3. For the same molecule, the “Tumor volume in cm^3” value (WEHI-3B tumor; day 17 after implantation) was 0.000 ± 0.000 cm^3, the “Tumor volume in cm^3” value (WEHI-3B tumor; day 20 after implantation) was 0.036 ± 0.010 cm^3 and the “Tumor volume in cm^3” value (WEHI-3B tumor; day 22 after implantation) was 0.117 ± 0.017 cm^3. For the same molecule, the “Tumor volume in cm^3” value (WEHI-3B tumor; day 24 after implantation) was 0.172 ± 0.025 cm^3.

`CCCCCCCCCCCCCCCCCCOCC(CP(=O)([O-])OCC[N+](C)(C)C)OC` (centres unmarked) [compound V] gave an activity at 0.62 µM (WEHI-3B tumor cells [2]; 24 hours) of 137 ± 6%, an activity at 0.62 µM (WEHI-3B tumor cells [2]; 48 hours, WEHI-3B cells) of 93 ± 6% and an activity at 0.62 µM (WEHI-3B tumor cells [2]; [3]) of 85 ± 3%. It also gave an activity at 1.25 µM (WEHI-3B tumor cells [2]; 24 hours) of 93 ± 7%, an activity at 1.25 µM (WEHI-3B tumor cells [2]; 48 hours, WEHI-3B cells) of 90 ± 5% and an activity at 1.25 µM (WEHI-3B tumor cells [2]; [3]) of 86 ± 4%. The activity at 2.5 µM (WEHI-3B tumor cells [2]; 24 hours) was 91 ± 4%, the activity at 2.5 µM (WEHI-3B tumor cells [2]; 48 hours, WEHI-3B cells) was 86 ± 8% and the activity at 2.5 µM (WEHI-3B tumor cells [2]; [3]) was 82 ± 6%. It also gave an activity at 5 µM (WEHI-3B tumor cells [2]; 24 hours) of 88 ± 11%, an activity at 5 µM (WEHI-3B tumor cells [2]; 48 hours, WEHI-3B cells) of 61 ± 6% and an activity at 5 µM (WEHI-3B tumor cells [2]; [3]) of 60 ± 4%. The activity at 10 µM (WEHI-3B tumor cells [2]; 24 hours) was 76 ± 6%, the activity at 10 µM (WEHI-3B tumor cells [2]; 48 hours, WEHI-3B cells) was 23 ± 2% and the activity at 10 µM (WEHI-3B tumor cells [2]; [3]) was 26 ± 3%. For the same molecule, the activity at 20 µM (WEHI-3B tumor cells [2]; 24 hours) was 48 ± 4%, the activity at 20 µM (WEHI-3B tumor cells [2]; 48 hours, WEHI-3B cells) was 18 ± 8% and the activity at 20 µM (WEHI-3B tumor cells [2]; [3]) was 10 ± 3%. It also gave an activity at 40 µM (WEHI-3B tumor cells [2]; 40 μM, 24 hours) of 43 ± 15%, an activity at 0.62 µM (HL-60 tumor cells; 48 hours) of 84 ± 5% and an activity at 0.62 µM (HL-60 tumor cells; [4]) of 93 ± 4%. It also gave an activity at 1.25 µM (HL-60 tumor cells; 48 hours) of 76 ± 4%, an activity at 1.25 µM (HL-60 tumor cells; [4]) of 81 ± 4% and an activity at 2.5 µM (HL-60 tumor cells; 48 hours) of 63 ± 4%. It also gave an activity at 2.5 µM (HL-60 tumor cells; [4]) of 66 ± 3%, an activity at 5 µM (HL-60 tumor cells; 48 hours) of 24 ± 3% and an activity at 5 µM (HL-60 tumor cells; [4]) of 16 ± 4%. The activity at 10 µM (HL-60 tumor cells; 48 hours) was 3 ± 2%, the activity at 10 µM (HL-60 tumor cells; [4]) was 5 ± 1% and the activity at 20 µM (HL-60 tumor cells; 48 hours) was 1%. The activity at 20 µM (HL-60 tumor cells; [4]) was 1 ± 0.9%.
